According to article PMC9607545, “Cry4Aa and Cry4Ba Mosquito-Active Toxins Utilize Different Domains in Binding to a Particular Culex ALP Isoform: A Functional Toxin Receptor Implicating Differential Actions on Target Larvae” (Toxins, 2022):

Tests used:
Cq-mALP1264 = biological target: T1, Cq-mALP1264 (Culex quinquefasciatus, UniProt A0A9E8AEX0); experiment: hydrolysis in Sf9 cell lysate, absorbance of p-nitrophenol at […] nm; type: biochemical; conditions: 5 mM pNPP, 100 mM Tris-HCl pH 9.5, 5 mM MgCl2, 100 mM NaCl, 30 °C, 10 min; control: CAT-expressing lysate (endogenous ALP activity present)
T1 construct: full-length ORF, 552 residues, ~61 kDa, 1656 bp cDNA from 4th instar larval midgut; N-terminal signal peptide and predicted GPI anchor; baculovirus (AcMNPV) expression in Sf9 cells
T1 sequence (A0A9E8AEX0 21-552): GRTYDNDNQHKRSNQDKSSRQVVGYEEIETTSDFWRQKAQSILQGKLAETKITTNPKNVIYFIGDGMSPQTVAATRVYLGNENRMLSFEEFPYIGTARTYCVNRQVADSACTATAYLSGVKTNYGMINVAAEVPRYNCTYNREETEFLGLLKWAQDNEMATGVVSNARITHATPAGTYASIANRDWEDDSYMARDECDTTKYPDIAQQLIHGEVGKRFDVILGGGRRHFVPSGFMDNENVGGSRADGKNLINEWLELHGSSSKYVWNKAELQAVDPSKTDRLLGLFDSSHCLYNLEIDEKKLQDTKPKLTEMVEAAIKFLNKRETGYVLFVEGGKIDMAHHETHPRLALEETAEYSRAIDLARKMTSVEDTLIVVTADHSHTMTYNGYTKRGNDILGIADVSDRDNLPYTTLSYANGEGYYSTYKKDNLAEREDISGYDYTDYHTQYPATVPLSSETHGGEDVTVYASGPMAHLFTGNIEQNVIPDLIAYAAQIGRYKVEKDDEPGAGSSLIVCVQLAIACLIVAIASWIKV

Cq-mALP1263 = biological target: T2, Cq-mALP1263 (Culex quinquefasciatus, UniProt A0A9E8ACD0); experiment: as above; type: biochemical; conditions: 5 mM pNPP, 100 mM Tris-HCl pH 9.5, 5 mM MgCl2, 100 mM NaCl, 30 °C, 10 min; control: CAT-expressing lysate (endogenous ALP activity present)
T2 construct: full-length ORF, 523 residues, ~57 kDa, 1569 bp cDNA from 4th instar larval midgut; N-terminal signal peptide and predicted GPI anchor; baculovirus (AcMNPV) expression in Sf9 cells
T2 sequence (A0A9E8ACD0 19-523): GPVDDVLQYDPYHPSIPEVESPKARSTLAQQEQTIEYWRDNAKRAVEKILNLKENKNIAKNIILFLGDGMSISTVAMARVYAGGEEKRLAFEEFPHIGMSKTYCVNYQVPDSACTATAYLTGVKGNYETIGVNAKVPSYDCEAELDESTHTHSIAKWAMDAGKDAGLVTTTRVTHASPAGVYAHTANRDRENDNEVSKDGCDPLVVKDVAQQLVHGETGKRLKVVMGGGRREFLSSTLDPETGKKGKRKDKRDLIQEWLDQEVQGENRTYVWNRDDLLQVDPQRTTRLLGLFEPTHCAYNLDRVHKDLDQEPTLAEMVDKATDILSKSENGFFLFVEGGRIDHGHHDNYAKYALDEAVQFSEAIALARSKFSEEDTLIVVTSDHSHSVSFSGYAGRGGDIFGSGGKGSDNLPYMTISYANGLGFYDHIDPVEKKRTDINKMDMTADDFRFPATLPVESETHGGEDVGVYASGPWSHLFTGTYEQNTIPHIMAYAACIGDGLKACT

Structure (SMILES): O=[N+]([O-])c1ccc(OP(=O)(O)O)cc1 [pNPP]
- hydrolysis in Sf9 cell lysate, absorbance of p-nitrophenol at 405 nm (Cq-mALP1264): both Cq-mALP-expressed cells produced significantly higher ALP activity than CAT-expressed cells
- hydrolysis in Sf9 cell lysate, absorbance of p-nitrophenol at 405 nm (Cq-mALP1263): both Cq-mALP-expressed cells produced significantly higher ALP activity than CAT-expressed cells
